This note sets out measurements from ChEMBL document CHEMBL1138625, “Synthesis and evaluation of novel phenoxypropanolamine derivatives containing acetanilides as potent and selective beta3-adrenergic receptor agonists” (Bioorg Med Chem, 2009).

Data set [1] concerns the target Beta-1 adrenergic receptor (Homo sapiens) (UniProt P08588). Particulars: CHO.
The target of data set [2] is Beta-3 adrenergic receptor (Homo sapiens) (UniProt P13945).
Data set [3] deals with Beta-1 adrenergic receptor (Homo sapiens) (UniProt P08588). Briefly: Agonist activity at human adrenergic receptor expressed in CHO cells assessed as cAMP accumulation.
The target of data set [4] is Beta-2 adrenergic receptor (Homo sapiens, UniProt P07550).
Description: Agonist activity at human beta2 adrenergic receptor expressed in CHO cells assessed as cAMP accumulation
Data set [5] is described as follows: Oral bioavailability in rat. The data set is classed as ADME, organism-based. Particulars: in vivo.
The test system of the next data set is Mus musculus. Briefly: Hypoglycemic activity in diabetic kk mouse assessed as reduction in plasma glucose level at 30 mg/kg, po administered once daily for 4 days by colorimetry. The data set is classed as functional. The arrangement: scale not given: the % may be the effect or the level left.

Structures are written as SMILES.

Beta-2 adrenergic receptor, sequence (P07550 whole entry): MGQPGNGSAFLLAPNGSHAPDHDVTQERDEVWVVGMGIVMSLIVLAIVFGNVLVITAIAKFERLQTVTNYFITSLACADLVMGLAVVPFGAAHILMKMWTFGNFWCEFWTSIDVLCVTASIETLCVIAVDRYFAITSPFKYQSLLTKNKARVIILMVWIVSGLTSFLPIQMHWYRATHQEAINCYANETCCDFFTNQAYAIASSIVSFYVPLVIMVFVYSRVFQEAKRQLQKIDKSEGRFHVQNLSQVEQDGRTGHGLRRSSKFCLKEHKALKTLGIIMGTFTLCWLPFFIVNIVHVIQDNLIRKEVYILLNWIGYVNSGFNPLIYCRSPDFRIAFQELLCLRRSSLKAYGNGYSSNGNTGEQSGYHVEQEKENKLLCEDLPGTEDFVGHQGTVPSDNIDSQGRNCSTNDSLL
Beta-3 adrenergic receptor (Homo sapiens), sequence (P13945 whole entry, looked up): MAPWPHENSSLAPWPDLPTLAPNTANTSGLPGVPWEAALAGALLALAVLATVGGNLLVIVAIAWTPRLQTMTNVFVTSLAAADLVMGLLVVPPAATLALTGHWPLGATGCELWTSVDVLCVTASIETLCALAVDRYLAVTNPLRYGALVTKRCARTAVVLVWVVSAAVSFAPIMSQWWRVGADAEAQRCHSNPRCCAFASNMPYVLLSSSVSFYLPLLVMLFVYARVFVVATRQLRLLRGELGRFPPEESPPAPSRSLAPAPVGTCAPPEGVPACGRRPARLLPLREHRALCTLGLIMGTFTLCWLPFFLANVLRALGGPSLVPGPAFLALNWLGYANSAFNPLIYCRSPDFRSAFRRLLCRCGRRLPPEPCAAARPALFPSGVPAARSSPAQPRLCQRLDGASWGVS

Consider `O=C(Cc1ccccn1)Nc1ccc(CCNC[C@H](O)COc2ccc(O)cc2)cc1`, for which the Intrinsic activity in data set [1] is 0.14. The EC50 is 0.29 µM in data set [2], 2.7 µM in data set [3] and over 100 µM in data set [4]. Further, the bioavailability in data set [5] was found to be 2%.
For the compound `CCCN(C(=O)Cc1nccn1Cc1ccccc1)c1ccc(CCNC[C@H](O)COc2ccccc2)cc1`, the Intrinsic activity in data set [1] worked out at 0.01. In addition, the EC50 in data set [2] is 0.5 µM; in data set [3] it was over 100 µM; in data set [4], over 100 µM.
The compound `Cc1cc(C)nc(CC(=O)Nc2ccc(CCNC[C@H](O)COc3ccccc3)cc2)c1` displayed an Intrinsic activity in data set [1] of 0.17. For the same compound, the EC50 in data set [2] is 0.28 µM; in data set [3], 0.31 µM; in data set [4], over 100 µM.
Regarding `CN(C(=O)Cc1nccn1Cc1ccccc1)c1ccc(CCNC[C@H](O)COc2ccccc2)cc1`, the Intrinsic activity in data set [1] turned out to be 0.04. The figures for the EC50 in data set [2], in data set [3] and in data set [4] were 0.28 µM, over 100 µM and over 100 µM, respectively. In addition, in the data set on Mus musculus, the Activity was 38%.
As to `O=C(Cc1ccccn1)Nc1ccc(CCNC[C@H](O)COc2cccc3[nH]ccc23)cc1`, the Intrinsic activity in data set [1] came to 0. The EC50 in data set [2] is 1.3 µM; in data set [3], over 100 µM; in data set [4], over 100 µM.
`O=C(Cc1nccn1Cc1ccc(Cl)cc1)Nc1ccc(CCNC[C@H](O)COc2ccccc2)cc1` gave an Intrinsic activity in data set [1] of 0.13. For the same compound, the EC50 is 0.27 µM in data set [2], 0.074 µM in data set [3] and over 100 µM in data set [4].
On the same counts, the results for `O=C(Cc1ncc[nH]1)Nc1ccc(CCNC[C@H](O)COc2ccccc2)cc1` are 0.26, 9.6 µM, 0.51 µM and over 100 µM.
`O=C(Cc1nccn1-c1ccccc1)Nc1ccc(CCNC[C@H](O)COc2ccccc2)cc1`: the EC50 in data set [4] is over 100 µM.
Still for that read-out and setting: then `O=C(Cc1nccn1Cc1ccccc1)N1CCCc2cc(CCNC[C@H](O)COc3ccccc3)ccc21`, with over 100 µM.
Turning to `O=C(Cc1ccccn1)Nc1ccc(CCNC[C@H](O)COc2ccccc2)cc1`, the Intrinsic activity in data set [1] stood at 0.11. Also, the values for the EC50 in data set [2], in data set [3] and in data set [4] were 120 µM, over 100 µM and over 100 µM, respectively. In data set [5], the bioavailability worked out at 27%.
`O=C(Cc1cccc(OCc2ccccc2)n1)Nc1ccc(CCNC[C@H](O)COc2ccccc2)cc1`: the Intrinsic activity in data set [1] was found to be 0.12. In addition, the figures for the EC50 in data set [2], in data set [3] and in data set [4] were 2.5 µM, 0.2 µM and over 100 µM, respectively.
For `O=C(Cc1cccc(Cl)n1)Nc1ccc(CCNC[C@H](O)COc2ccccc2)cc1`, the EC50 in data set [4] is over 100 µM.
Same read-out and setting: then `CC(Cc1ccc(NC(=O)Cc2nccn2Cc2ccccc2)cc1)NC[C@H](O)COc1ccccc1` (stereo in doubt; 27b), with over 100 µM; and `CC(Cc1ccc(NC(=O)Cc2nccn2Cc2ccccc2)cc1)NC[C@H](O)COc1ccccc1` (single isomer, unassigned; diastereomer I), with 0.027 µM.
As to `O=C(Cc1nccn1Cc1ccc(Br)cc1)Nc1ccc(CCNC[C@H](O)COc2ccccc2)cc1`, the Intrinsic activity in data set [1] was 0.3. For the same compound, the EC50 in data set [2] is 0.19 µM; in data set [3], 0.071 µM; in data set [4], over 100 µM.
In data set [4], `O=C(Cc1cn(Cc2ccccc2)cn1)Nc1ccc(CCNC[C@H](O)COc2ccccc2)cc1` returned an EC50 of over 100 µM.
Still for that read-out and setting: then `O=C(Cc1ccccn1)Nc1ccc(CCNC[C@H](O)COc2cccc3[nH]c4ccccc4c23)cc1`, with over 100 µM.
As for `CS(=O)(=O)Nc1ccc(OC[C@@H](O)CNCCc2ccc(NC(=O)Cc3ccccn3)cc2)cc1`, the Intrinsic activity in data set [1] came to 0.01. The EC50 in data set [2], in data set [3] and in data set [4] was over 100 µM throughout.
In turn, `O=C(Cc1nccn1Cc1ccccc1)Nc1ccc(CCNC[C@H](O)COc2ccccc2)cc1` displayed an Intrinsic activity in data set [1] of 0.2. For the same compound, the EC50 in data set [2] was 0.18 µM; in data set [3], 0.13 µM; in data set [4], over 100 µM. Further, in the data set on Mus musculus, the Activity is listed as 43%.
`Cc1cccnc1CC(=O)Nc1ccc(CCNC[C@H](O)COc2ccccc2)cc1` had an Intrinsic activity in data set [1] of 0.18. In addition, the EC50 was 0.33 µM in data set [2], 0.39 µM in data set [3] and over 100 µM in data set [4].
With `O=C(Cc1nccn1Cc1ccc2ccccc2c1)Nc1ccc(CCNC[C@H](O)COc2ccccc2)cc1`, the EC50 in data set [4] is over 100 µM.
On to `O=C(Cc1ccccn1)Nc1ccc(CCNC[C@H](O)COc2cccnc2)cc1`, for which the 50% effective concentration (EC50) in data set [4] is over 100 µM.
On the same count and under the same terms, the same measure for `O=C(Cc1ccccn1)Nc1ccc(CCNC[C@H](O)COc2cccc3[nH]c(=O)[nH]c23)cc1`: over 100 µM; for `O=C(Cc1nc2ccccc2n1Cc1ccccc1)Nc1ccc(CCNC[C@H](O)COc2ccccc2)cc1`: over 100 µM.
